Results published in patent publication US8632612B2, “Compositions for dyeing keratin fibers” (Segetis, Inc., priority 2010, dated 2014).

How the values were obtained:
[1] = Dissolution of hair dye moieties in neat ketal solvents and storage at room temperature (Example 7); type: physicochemical
Description: The respective hair dye compositions and their methods of manufacturing are discussed in detail below.

[2] = Saturated solubility of oxidation dye intermediates in hair dye formulations (UV-Vis against calibration curve); details: 10 minutes stirring, three replications

| SMILES | dissolution in ketal ([1]; 1% solids in Et-LPK at 80° C.) | solubility after storage ([1]; 5% and 1% solids in Et-LPK, storage at room temperature) | dissolution in ketal ([1]; 5% solids in Bu-LGK at 80° C.) | solubility after storage ([1]; 5% solids in Et-LGK (dissolved at 80° C.), 24 hours of storage at room temperature) | dissolution in ketal ([1]; 5% solids in Et-LGK at 80° C.) | dissolution in ketal ([1]; 5% solids in Et-LPK at 80° C.) | dissolution in ketal ([1]; 25% solids in Bu-LGK at 80° C.) | Average Solubility ([2]; in formulation 5A (7% Et-LGK), pH 10.2, 27° C.) [% wt./wt.] | Average Solubility ([2]; in formulation 5B (7% Et-LGK), pH 8.5, 27° C.) [% wt./wt.] | Average Solubility ([2]; in formulation 6A (7% Et-LPK), pH 10.2, 27° C.) [% wt./wt.] | Average Solubility ([2]; in formulation 6B (7% Et-LPK), pH 8.5, 27° C.) [% wt./wt.] | dissolution in ketal ([1]; 10% solids in Bu-LGK at 80° C. with agitation) | dissolution in ketal ([1]; 10% solids in Et-LGK at 80° C. with agitation) | dissolution in ketal ([1]; 10% solids in Et-LPK at room temperature with agitation) | dissolution in ketal ([1]; 5% solids in Et-LGK at room temperature) |
| --- | --- | --- | --- | --- | --- | --- | --- | --- | --- | --- | --- | --- | --- | --- | --- |
| Nc1ccc(N)cc1 [p-phenylenediamine] | did not completely dissolve | a precipitant remained | dissolved | still soluble | dissolved | did not completely dissolve | partially dissolved | 0.07 | 0.07 | 0 | <0.01 | – | – | – | – |
| Oc1cccc(O)c1 [Resorcinol] | – | – | – | – | – | – | – | – | – | – | – | dissolved | dissolved | dissolved | – |
| Nc1cccc(O)c1 [m-Aminophenol] | – | – | – | – | – | dissolved | – | – | – | – | – | – | – | – | dissolved |
